Experimental data published in ChEMBL document CHEMBL3885861, “Open TG-GATES”.

Species on record: Rattus norvegicus
Assay: Open TG-GATES - Regimen: Single
Type: toxicity, organism-based, Sprague-Dawley
Parameters: regimen Single, gender Male, age 6 weeks
Conditions: in vivo, po, 1000 mg/kg, route gavage, dose level High; for APTT / Bas / Eos / Fbg / Hb / Ht / Lym / MCH / MCHC / MCV / Mono / Neu / PT / Plat / RBC / Ret / WBC: tissue Blood; for KIDNEY_L / KIDNEY_R / KIDNEY_TOTAL: tissue Kidney; for LIVER: tissue Liver; for A/G / ALP / ALT / AST / BUN / CRE / Ca / Cl / DBIL / GLC / IP / K / LDH / Na / PL / RALB / TBIL / TC / TG / TP / gamma-GTP: tissue Plasma

COc1ccc(Cl)cc1C(=O)NCCc1ccc(S(=O)(=O)NC(=O)NC2CCCCC2)cc1 [GLYBURIDE]
TERMINAL_BW (9 h): 211.6 g | APTT (9 h): 18.9 s | Bas (9 h): 0% | Eos (9 h): 1% | Fbg (9 h): 228 mg/dL | Hb (9 h): 13.3 g/dL | Ht (9 h): 40.7% | Lym (9 h): 76% | MCH (9 h): 20.4 pg | MCHC (9 h): 32.6% | MCV (9 h): 62.5 fL | Mono (9 h): 2.8% | Neu (9 h): 19.6% | PT (9 h): 12.9 s | Plat (9 h): 115.6 x10_4/uL | RBC (9 h): 651.2 x10_4/ul | Ret (9 h): 7.8% | WBC (9 h): 83.2 x10_2/uL | KIDNEY_L (9 h): 0.9 g | KIDNEY_R (9 h): 0.9 g | KIDNEY_TOTAL (9 h): 1.8 g | LIVER (9 h): 8.7 g | A/G (9 h): 1.7 | ALP (9 h): 1050.6 IU/L | ALT (9 h): 35.4 IU/L | AST (9 h): 65.2 IU/L | BUN (9 h): 12.8 mg/dL | CRE (9 h): 0.4 mg/dL | Ca (9 h): 10.7 mg/dL | Cl (9 h): 103.8 meq/L | DBIL (9 h): 0.1 mg/dL | GLC (9 h): 139 mg/dL | IP (9 h): 9.5 mg/dL | K (9 h): 3.5 meq/L | LDH (9 h): 168.2 IU/L | Na (9 h): 142.2 meq/L | PL (9 h): 141 mg/dL | RALB (9 h): 3.5 g/dL | TBIL (9 h): 0.2 mg/dL | TC (9 h): 70.8 mg/dL | TG (9 h): 64.2 mg/dL | TP (9 h): 5.7 g/dL | gamma-GTP (9 h): 0.6 IU/L | TERMINAL_BW (24 h): 226 g | APTT (24 h): 18.8 s | Bas (24 h): 0.2% | Eos (24 h): 1% | Fbg (24 h): 215.2 mg/dL | Hb (24 h): 13 g/dL | Ht (24 h): 38.3% | Lym (24 h): 77.2% | MCH (24 h): 21.6 pg | MCHC (24 h): 33.9% | MCV (24 h): 63.9 fL | Mono (24 h): 2.8% | Neu (24 h): 18.6% | PT (24 h): 12.8 s | Plat (24 h): 126.5 x10_4/uL | RBC (24 h): 600.8 x10_4/ul | Ret (24 h): 6.8% | WBC (24 h): 87.8 x10_2/uL | KIDNEY_L (24 h): 1 g | KIDNEY_R (24 h): 1 g | KIDNEY_TOTAL (24 h): 1.9 g | LIVER (24 h): 10.1 g | A/G (24 h): 1.7 | ALP (24 h): 923.4 IU/L | ALT (24 h): 35.6 IU/L | AST (24 h): 69.2 IU/L | BUN (24 h): 16.2 mg/dL | CRE (24 h): 0.3 mg/dL | Ca (24 h): 10.7 mg/dL | Cl (24 h): 103.4 meq/L | DBIL (24 h): 0.1 mg/dL | GLC (24 h): 195 mg/dL | IP (24 h): 7.7 mg/dL | K (24 h): 3.4 meq/L | LDH (24 h): 218.2 IU/L | Na (24 h): 142.6 meq/L | PL (24 h): 143.6 mg/dL | RALB (24 h): 3.5 g/dL | TBIL (24 h): 0.2 mg/dL | TC (24 h): 75.4 mg/dL | TG (24 h): 74 mg/dL | TP (24 h): 5.5 g/dL | gamma-GTP (24 h): 1.4 IU/L
